Test results taken from ChEMBL document CHEMBL3885861, “Open TG-GATES”.

Species: Rattus norvegicus
Assay: Open TG-GATES - Regimen: Single
Format: toxicity, organism-based, Sprague-Dawley
Design: regimen Single, gender Male, age 6 weeks
Details: in vivo, po, route gavage; for Bas / Eos / Fbg / Hb / Lym / MCH / MCHC / MCV / Mono / Neu / RBC / Ret / WBC / APTT: tissue Blood; for KIDNEY_L / KIDNEY_R / KIDNEY_TOTAL: tissue Kidney; for LIVER: tissue Liver; for ALP / ALT / AST / CRE / Ca / Cl / DBIL / GLC / IP / K / LDH / Na / PL / RALB / TBIL / TC / TG / TP / gamma-GTP: tissue Plasma
[1] = 75 mg/kg, 3 h, dose level Middle
[2] = 75 mg/kg, 6 h, dose level Middle
[3] = 75 mg/kg, 9 h, dose level Middle
[4] = 75 mg/kg, 24 h, dose level Middle

O=C1CN(/N=C/c2ccc(-c3ccc([N+](=O)[O-])cc3)o2)C(O)=N1 [DANTROLENE] gave a Bas [1] of 0%, an Eos [1] of 1% and a Fbg [1] of 217.6 mg/dL. For the same compound, the Hb [1] was 14.2 g/dL, the Lym [1] was 70.4% and the MCH [1] was 22.7 pg. For the same compound, the MCHC [1] was 34.1%, the MCV [1] was 66.7 fL and the Mono [1] was 8%. For the same compound, the Neu [1] was 20.6%, the RBC [1] was 623.6 x10_4/ul and the Ret [1] was 10.8%. The WBC [1] was 82.6 x10_2/uL, the KIDNEY_L [1] was 0.9 g and the KIDNEY_R [1] was 1 g. It also gave a KIDNEY_TOTAL [1] of 1.9 g, an LIVER [1] of 9.5 g and an ALP [1] of 747.2 IU/L. For the same compound, the ALT [1] was 32.4 IU/L, the AST [1] was 60.2 IU/L and the CRE [1] was 0.5 mg/dL. It also gave a Ca [1] of 10.3 mg/dL, a Cl [1] of 101.4 meq/L and a DBIL [1] of 0.06 mg/dL. For the same compound, the GLC [1] was 213.4 mg/dL, the IP [1] was 11.1 mg/dL and the K [1] was 4.7 meq/L. It also gave an LDH [1] of 105.8 IU/L, a Na [1] of 138 meq/L and a PL [1] of 148.2 mg/dL. It also gave an RALB [1] of 3.9 g/dL, a TBIL [1] of 0.3 mg/dL and a TC [1] of 85.4 mg/dL. For the same compound, the TG [1] was 41.4 mg/dL, the TP [1] was 5.7 g/dL and the gamma-GTP [1] was 1.8 IU/L. The TERMINAL_BW [2] was 191.2 g, the APTT [2] was 17 s and the Bas [2] was 0%. For the same compound, the Eos [2] was 1%, the Fbg [2] was 220.6 mg/dL and the Hb [2] was 14.6 g/dL. The Lym [2] was 73.2%, the MCH [2] was 22.4 pg and the MCHC [2] was 34.3%. The MCV [2] was 65.2 fL, the Mono [2] was 8.6% and the Neu [2] was 17.2%. It also gave an RBC [2] of 650.4 x10_4/ul, a Ret [2] of 12.7% and a WBC [2] of 82.9 x10_2/uL. It also gave a KIDNEY_L [2] of 0.9 g, a KIDNEY_R [2] of 0.9 g and a KIDNEY_TOTAL [2] of 1.9 g. For the same compound, the LIVER [2] was 9 g, the ALP [2] was 749.6 IU/L and the ALT [2] was 34 IU/L. It also gave an AST [2] of 64.2 IU/L, a CRE [2] of 0.5 mg/dL and a Ca [2] of 10.3 mg/dL. For the same compound, the Cl [2] was 102.8 meq/L, the DBIL [2] was 0.06 mg/dL and the GLC [2] was 211.4 mg/dL. The IP [2] was 9.6 mg/dL, the K [2] was 4.6 meq/L and the LDH [2] was 102 IU/L. It also gave a Na [2] of 138.8 meq/L, a PL [2] of 141.8 mg/dL and an RALB [2] of 3.8 g/dL. For the same compound, the TBIL [2] was 0.3 mg/dL, the TC [2] was 80.4 mg/dL and the TG [2] was 30.4 mg/dL. The TP [2] was 5.6 g/dL, the gamma-GTP [2] was 1.6 IU/L and the TERMINAL_BW [3] was 191.7 g. The APTT [3] was 16.9 s, the Bas [3] was 0% and the Eos [3] was 1%. For the same compound, the Fbg [3] was 217.8 mg/dL, the Hb [3] was 14.3 g/dL and the Lym [3] was 78.2%. It also gave an MCH [3] of 21.6 pg, an MCHC [3] of 32.9% and an MCV [3] of 65.6 fL. For the same compound, the Mono [3] was 7.4%, the RBC [3] was 663.8 x10_4/ul and the Ret [3] was 9.8%. The WBC [3] was 74.6 x10_2/uL, the KIDNEY_L [3] was 0.9 g and the KIDNEY_R [3] was 0.9 g. The KIDNEY_TOTAL [3] was 1.8 g, the LIVER [3] was 8.2 g and the ALP [3] was 710.6 IU/L. It also gave an ALT [3] of 23.2 IU/L, an AST [3] of 53 IU/L and a CRE [3] of 0.5 mg/dL. It also gave a Ca [3] of 10.4 mg/dL, a Cl [3] of 105.2 meq/L and a DBIL [3] of 0.054 mg/dL. It also gave a GLC [3] of 205.8 mg/dL, an IP [3] of 9.5 mg/dL and a K [3] of 5.2 meq/L. The LDH [3] was 103.2 IU/L, the Na [3] was 138.2 meq/L and the PL [3] was 148 mg/dL. The RALB [3] was 3.8 g/dL, the TBIL [3] was 0.4 mg/dL and the TC [3] was 87.4 mg/dL. For the same compound, the TG [3] was 26.4 mg/dL, the TP [3] was 5.5 g/dL and the gamma-GTP [3] was 1.6 IU/L. It also gave a TERMINAL_BW [4] of 190.1 g, an APTT [4] of 16.9 s and a Bas [4] of 0%. The Eos [4] was 0.8%, the Fbg [4] was 202.2 mg/dL and the Hb [4] was 13.8 g/dL. For the same compound, the Lym [4] was 86.2%, the MCH [4] was 21.9 pg and the MCHC [4] was 33.6%. The MCV [4] was 65.3 fL, the Mono [4] was 7.2% and the Neu [4] was 6.2%. The RBC [4] was 631 x10_4/ul, the Ret [4] was 11.5% and the WBC [4] was 86.1 x10_2/uL. The KIDNEY_L [4] was 0.9 g, the KIDNEY_R [4] was 0.9 g and the KIDNEY_TOTAL [4] was 1.9 g. It also gave an LIVER [4] of 9 g, an ALP [4] of 1061.6 IU/L and an ALT [4] of 32.8 IU/L. The AST [4] was 56.2 IU/L, the CRE [4] was 0.5 mg/dL and the Ca [4] was 10.9 mg/dL. It also gave a Cl [4] of 105 meq/L, a DBIL [4] of 0.018 mg/dL and a GLC [4] of 189 mg/dL. For the same compound, the IP [4] was 7.7 mg/dL, the K [4] was 4.3 meq/L and the LDH [4] was 104.6 IU/L. For the same compound, the Na [4] was 141.4 meq/L, the PL [4] was 147.8 mg/dL and the RALB [4] was 3.9 g/dL. The TBIL [4] was 0.4 mg/dL, the TC [4] was 83.6 mg/dL and the TG [4] was 73.2 mg/dL. The TP [4] was 5.7 g/dL, the gamma-GTP [4] was 1 IU/L and the TERMINAL_BW (250 mg/kg, 3 h, dose level High) was 193.5 g.
